Test results as given in the Kinase Knowledgebase extract (Sharma et al. 2016).

Experiments:
Test in all cases: Enzyme Assay
PIK3CA (human) = PIK3CA (human) (UniProt P42336)
PIK3CB (Human) = PIK3CB (Human) (UniProt P42338)
PIK3CG (human) = PIK3CG (human) (UniProt P48736)
PIK3CD (Human) = PIK3CD (Human) (UniProt O00329)
PIK3CD (Human), sequence (O00329 whole entry, looked up): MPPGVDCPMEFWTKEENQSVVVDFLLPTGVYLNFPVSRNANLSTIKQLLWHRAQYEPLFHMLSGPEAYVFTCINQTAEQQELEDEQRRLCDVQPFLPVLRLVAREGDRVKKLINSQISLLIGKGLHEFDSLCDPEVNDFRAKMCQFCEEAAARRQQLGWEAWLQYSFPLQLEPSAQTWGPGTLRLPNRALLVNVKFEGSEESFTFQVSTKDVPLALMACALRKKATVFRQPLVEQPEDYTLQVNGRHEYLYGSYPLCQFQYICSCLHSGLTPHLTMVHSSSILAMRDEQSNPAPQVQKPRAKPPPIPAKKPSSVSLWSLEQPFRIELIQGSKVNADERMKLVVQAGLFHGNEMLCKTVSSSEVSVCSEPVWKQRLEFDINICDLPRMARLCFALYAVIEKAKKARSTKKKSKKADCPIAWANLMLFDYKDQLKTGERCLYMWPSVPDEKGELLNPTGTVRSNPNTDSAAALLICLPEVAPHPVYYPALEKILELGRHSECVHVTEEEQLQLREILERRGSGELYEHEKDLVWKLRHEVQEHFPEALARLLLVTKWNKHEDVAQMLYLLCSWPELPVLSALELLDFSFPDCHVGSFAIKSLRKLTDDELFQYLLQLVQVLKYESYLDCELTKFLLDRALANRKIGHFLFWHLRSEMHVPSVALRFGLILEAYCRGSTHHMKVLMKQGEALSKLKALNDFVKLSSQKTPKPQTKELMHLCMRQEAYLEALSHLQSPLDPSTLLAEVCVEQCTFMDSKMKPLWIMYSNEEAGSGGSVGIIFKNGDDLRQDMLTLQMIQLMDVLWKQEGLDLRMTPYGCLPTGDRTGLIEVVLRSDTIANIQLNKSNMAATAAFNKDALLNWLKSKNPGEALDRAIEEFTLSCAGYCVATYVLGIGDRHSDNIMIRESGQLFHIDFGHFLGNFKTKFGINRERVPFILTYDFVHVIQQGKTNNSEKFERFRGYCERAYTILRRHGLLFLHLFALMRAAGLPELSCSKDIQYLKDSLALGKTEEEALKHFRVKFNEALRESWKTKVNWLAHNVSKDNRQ

PIK3CG (human), sequence (P48736 whole entry, looked up): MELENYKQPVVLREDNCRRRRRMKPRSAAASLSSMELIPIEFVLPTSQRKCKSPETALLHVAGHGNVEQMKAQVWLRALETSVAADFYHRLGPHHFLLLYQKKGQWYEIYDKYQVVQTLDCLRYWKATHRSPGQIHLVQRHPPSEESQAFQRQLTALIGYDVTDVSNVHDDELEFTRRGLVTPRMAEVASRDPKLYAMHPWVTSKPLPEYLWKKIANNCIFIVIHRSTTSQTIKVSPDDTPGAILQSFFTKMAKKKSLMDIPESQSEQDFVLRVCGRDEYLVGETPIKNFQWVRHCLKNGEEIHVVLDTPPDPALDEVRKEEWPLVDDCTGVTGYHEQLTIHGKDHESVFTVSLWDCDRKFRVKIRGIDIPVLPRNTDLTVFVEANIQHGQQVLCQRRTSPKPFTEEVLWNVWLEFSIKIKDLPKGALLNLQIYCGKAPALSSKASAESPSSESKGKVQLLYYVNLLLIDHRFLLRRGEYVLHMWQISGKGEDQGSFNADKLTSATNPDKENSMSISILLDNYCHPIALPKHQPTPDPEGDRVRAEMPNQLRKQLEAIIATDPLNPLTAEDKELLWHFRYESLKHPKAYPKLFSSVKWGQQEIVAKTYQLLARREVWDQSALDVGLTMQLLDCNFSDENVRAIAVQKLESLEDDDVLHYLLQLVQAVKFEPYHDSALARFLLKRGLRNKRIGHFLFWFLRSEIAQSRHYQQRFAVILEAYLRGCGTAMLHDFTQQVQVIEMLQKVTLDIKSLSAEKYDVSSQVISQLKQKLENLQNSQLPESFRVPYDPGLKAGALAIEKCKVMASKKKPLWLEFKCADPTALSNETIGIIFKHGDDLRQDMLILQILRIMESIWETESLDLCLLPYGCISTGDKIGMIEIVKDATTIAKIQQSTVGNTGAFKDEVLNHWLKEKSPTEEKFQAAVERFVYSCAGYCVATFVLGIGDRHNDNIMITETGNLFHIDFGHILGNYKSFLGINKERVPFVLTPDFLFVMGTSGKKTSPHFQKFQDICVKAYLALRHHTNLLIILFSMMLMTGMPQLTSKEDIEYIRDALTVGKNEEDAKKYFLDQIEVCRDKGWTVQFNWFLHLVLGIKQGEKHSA
PIK3CB (Human), sequence (P42338 whole entry, looked up): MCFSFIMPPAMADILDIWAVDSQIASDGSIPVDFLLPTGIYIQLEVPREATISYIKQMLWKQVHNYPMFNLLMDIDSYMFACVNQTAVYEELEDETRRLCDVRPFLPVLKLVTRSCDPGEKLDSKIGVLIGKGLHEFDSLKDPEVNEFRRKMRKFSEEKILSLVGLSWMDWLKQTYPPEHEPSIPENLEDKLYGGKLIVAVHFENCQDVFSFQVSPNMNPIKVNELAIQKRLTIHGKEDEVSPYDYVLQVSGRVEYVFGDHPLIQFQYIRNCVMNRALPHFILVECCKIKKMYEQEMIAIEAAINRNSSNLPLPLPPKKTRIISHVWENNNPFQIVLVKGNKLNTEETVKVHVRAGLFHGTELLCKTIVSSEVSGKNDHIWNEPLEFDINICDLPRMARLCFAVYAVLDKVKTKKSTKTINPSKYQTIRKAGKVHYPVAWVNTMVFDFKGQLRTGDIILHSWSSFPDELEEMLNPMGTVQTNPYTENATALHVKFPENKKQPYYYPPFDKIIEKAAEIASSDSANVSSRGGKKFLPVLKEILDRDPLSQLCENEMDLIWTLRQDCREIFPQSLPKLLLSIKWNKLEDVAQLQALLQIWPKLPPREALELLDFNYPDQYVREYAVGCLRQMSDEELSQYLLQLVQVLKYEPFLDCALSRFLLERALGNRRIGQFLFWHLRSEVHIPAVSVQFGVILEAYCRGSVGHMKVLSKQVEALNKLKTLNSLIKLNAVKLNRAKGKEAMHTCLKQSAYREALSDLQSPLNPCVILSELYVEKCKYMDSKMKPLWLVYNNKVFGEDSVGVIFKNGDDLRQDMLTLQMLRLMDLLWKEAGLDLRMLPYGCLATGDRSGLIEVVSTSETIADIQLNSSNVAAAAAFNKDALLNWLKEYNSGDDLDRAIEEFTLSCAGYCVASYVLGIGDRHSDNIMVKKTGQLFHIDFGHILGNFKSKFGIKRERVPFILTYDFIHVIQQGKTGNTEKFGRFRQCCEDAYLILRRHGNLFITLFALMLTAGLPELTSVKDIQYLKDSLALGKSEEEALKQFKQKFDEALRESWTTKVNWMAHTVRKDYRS
PIK3CA (human), sequence (P42336 whole entry, looked up): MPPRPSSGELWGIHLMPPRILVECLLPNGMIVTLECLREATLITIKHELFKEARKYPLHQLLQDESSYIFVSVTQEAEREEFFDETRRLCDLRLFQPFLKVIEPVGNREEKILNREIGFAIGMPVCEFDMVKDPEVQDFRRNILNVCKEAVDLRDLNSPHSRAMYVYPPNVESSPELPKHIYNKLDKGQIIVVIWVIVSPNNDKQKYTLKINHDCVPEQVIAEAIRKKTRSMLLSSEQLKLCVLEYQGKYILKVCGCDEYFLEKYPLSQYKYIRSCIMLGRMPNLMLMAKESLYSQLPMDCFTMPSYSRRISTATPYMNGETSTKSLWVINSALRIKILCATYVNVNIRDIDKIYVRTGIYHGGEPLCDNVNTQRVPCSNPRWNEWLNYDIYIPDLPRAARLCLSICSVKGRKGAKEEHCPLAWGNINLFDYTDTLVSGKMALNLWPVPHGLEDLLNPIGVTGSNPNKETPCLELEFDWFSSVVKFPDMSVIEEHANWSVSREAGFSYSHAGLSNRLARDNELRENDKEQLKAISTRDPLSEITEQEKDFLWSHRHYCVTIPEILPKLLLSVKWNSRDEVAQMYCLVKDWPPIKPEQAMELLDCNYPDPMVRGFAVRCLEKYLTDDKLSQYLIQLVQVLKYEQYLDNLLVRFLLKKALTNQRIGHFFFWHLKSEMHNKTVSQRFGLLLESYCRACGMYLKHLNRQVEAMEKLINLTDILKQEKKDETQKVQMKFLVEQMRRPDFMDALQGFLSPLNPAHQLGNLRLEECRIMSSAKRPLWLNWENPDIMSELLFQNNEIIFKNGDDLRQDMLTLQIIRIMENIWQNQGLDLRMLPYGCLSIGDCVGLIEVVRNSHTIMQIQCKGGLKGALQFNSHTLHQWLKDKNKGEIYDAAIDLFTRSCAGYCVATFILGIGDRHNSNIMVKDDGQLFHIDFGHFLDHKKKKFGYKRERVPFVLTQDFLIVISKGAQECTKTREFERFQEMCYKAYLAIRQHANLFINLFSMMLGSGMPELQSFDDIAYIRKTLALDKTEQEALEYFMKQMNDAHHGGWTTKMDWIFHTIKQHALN

IC50 (PIK3CA (human)) [µM]	IC50 (PIK3CB (Human)) [µM]	IC50 (PIK3CG (human)) [µM]	IC50 (PIK3CD (Human)) [µM]	SMILES
19	0.19	> 100	8.9	N[C@@H](Cc1ccccc1)C(=O)N1CCN(c2nc(-c3cccc(O)c3)nc(N3CCOCC3)n2)CC1
–	0.067	> 10	1	CCC(C)[C@H](N)C(=O)N1CCN(c2nc(N3CCOCC3)nc(-n3c(C(F)F)nc4ccccc43)n2)CC1 (some centres not stated)
1.5	3.2	6.5	0.33	O=C(C1CCNCC1)N1CCN(c2nc(-c3cccc(O)c3)nc(N3CCOCC3)n2)CC1
62	1.8	> 100	17	N[C@H](CC(=O)N1CCN(c2nc(-c3cccc(O)c3)nc(N3CCOCC3)n2)CC1)Cc1ccccc1
–	–	> 100	–	N[C@@H](Cc1ccccc1)C(=O)N1CCN(c2nc(N3CCOCC3)nc(-n3c(C(F)F)nc4ccccc43)n2)CC1
5.07	–	–	0.376	Cc1cc(C(C)Nc2ccccc2)c2nc(N3CCOCC3)cc(=O)n2c1 (configuration not stated)
2.2	1.7	16	1.3	C[C@@H](N)CC(=O)N1CCN(c2nc(-c3cccc(O)c3)nc(N3CCOCC3)n2)CC1
26	7.1	> 100	2.8	N[C@H](CC(=O)N1CCN(c2nc(N3CCOCC3)nc(-n3c(C(F)F)nc4ccccc43)n2)CC1)Cc1ccccc1
21	19	> 100	9.1	CC(C)C[C@H](N)CC(=O)N1CCN(c2nc(-c3cccc(O)c3)nc(N3CCOCC3)n2)CC1
3	1.3	7.5	0.11	C[C@H](N)CC(=O)N1CCN(c2nc(N3CCOCC3)nc(-n3c(C(F)F)nc4ccccc43)n2)CC1
–	78	58	–	N[C@H](Cc1ccccc1)C(=O)N1CCN(c2nc(N3CCOCC3)nc(-n3c(C(F)F)nc4ccccc43)n2)CC1
13	0.483	–	2.95	CSCC[C@H](N)C(=O)N1CCN(c2nc(N3CCOCC3)nc(-n3c(C(F)F)nc4ccccc43)n2)CC1
0.85	0.081	7.5	0.077	NCCCC(=O)N1CCN(c2nc(N3CCOCC3)nc(-n3c(C(F)F)nc4ccccc43)n2)CC1
4.4	1.6	5.5	0.026	O=C(C[C@H]1CCCN1)N1CCN(c2nc(-c3cccc(O)c3)nc(N3CCOCC3)n2)CC1
